Test results from article PMC7534374 (Journal of Enzyme Inhibition and Medicinal Chemistry, 2020).

What was measured:
[1] = target: T1, yeast glutathione reductase (yGR) (Saccharomyces cerevisiae, UniProt P41921); assay: LC-MS/MS of covalent adduct; assay type: biochemical; details: read-out: Ki
T1 sequence (P41921 1-483): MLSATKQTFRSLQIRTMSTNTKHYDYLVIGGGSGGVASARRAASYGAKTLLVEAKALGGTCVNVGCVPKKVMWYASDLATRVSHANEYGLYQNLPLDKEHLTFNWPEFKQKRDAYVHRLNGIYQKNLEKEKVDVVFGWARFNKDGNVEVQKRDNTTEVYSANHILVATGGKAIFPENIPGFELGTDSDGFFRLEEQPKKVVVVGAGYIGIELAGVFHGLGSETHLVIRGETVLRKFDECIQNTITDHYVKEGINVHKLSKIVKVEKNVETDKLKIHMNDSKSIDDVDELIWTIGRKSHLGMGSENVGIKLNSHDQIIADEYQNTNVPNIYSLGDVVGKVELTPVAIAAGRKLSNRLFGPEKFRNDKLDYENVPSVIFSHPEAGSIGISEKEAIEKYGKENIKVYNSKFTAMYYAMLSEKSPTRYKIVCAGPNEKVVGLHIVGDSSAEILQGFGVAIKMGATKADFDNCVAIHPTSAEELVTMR

[2] = target: T2, human glutathione reductase (hGR) (Homo sapiens, UniProt P00390); assay: GR activity assay; assay type: biochemical
T2 sequence (P00390 44-522): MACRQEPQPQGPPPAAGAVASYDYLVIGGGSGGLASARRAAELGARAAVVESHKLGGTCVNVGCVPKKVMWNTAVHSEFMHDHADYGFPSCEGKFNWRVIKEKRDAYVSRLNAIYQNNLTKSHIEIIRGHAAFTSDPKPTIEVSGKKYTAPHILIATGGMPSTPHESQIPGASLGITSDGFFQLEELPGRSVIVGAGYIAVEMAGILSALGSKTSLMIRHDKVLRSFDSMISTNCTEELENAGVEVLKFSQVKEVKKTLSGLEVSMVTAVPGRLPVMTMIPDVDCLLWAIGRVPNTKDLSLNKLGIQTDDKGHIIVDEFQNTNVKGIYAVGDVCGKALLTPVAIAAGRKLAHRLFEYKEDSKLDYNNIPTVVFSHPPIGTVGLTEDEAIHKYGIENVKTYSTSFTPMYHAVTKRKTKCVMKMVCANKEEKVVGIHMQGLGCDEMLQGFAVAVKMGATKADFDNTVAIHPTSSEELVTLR

S=C=NCc1ccccc1 [BITC, Benzyl isothiocyanate]
KI (inactivation) [1]: 260 µM | GR activity assay (NADPH consumption at 340 nm) [2]: BITC exerted comparable inhibitory effect against both of yeast and human GRs

S=C=NCCc1ccccc1 [PEITC, Phenethyl isothiocyanate]
GR activity assay (NADPH consumption at 340 nm) [2]: both of BITC and PEITC inhibited yeast or human GR in a concentration-dependent manner
